Reference: DBAASP
In brackets after ≈: the same amount, converted by molar mass.

Legend:
Assay in all cases: ≥ marks a high value that may be exact or a test limit, other limits are often not marked, values filed in µg/mL are converted to µM
[1] = test system: Pseudomonas aeruginosa H1001
[2] = test system: Escherichia coli JW2778 ΔygdD
[3] = test system: Salmonella typhimurium SL1344
Escherichia coli BW25113 = test system: Escherichia coli BW25113
Escherichia coli JJ2489 = test system: Escherichia coli JJ2489
Escherichia coli JW0013 = test system: Escherichia coli JW0013
[4] = test system: Salmonella enterica subsp. enterica serovar Enteritidis MH91989
[5] = test system: Escherichia coli JW0368 ΔsbmA
Escherichia coli MC1041 = test system: Escherichia coli MC1041
Escherichia coli J2210 = test system: Escherichia coli J2210
[6] = test system: Pseudomonas aeruginosa PAO1
Candida albicans = test system: Candida albicans
[7] = test system: Staphylococcus epidermidis ATCC 12228
Escherichia coli UB1005 = test system: Escherichia coli UB1005
[8] = test system: Staphylococcus aureus ATCC 25923
[9] = test system: Pseudomonas aeruginosa ATCC 27853
[10] = test system: Staphylococcus aureus ATCC 29213
[11] = test system: Enterococcus faecalis ATCC 29212
[12] = test system: Salmonella enterica subsp. enterica serovar Typhimurium C77-31
[13] = test system: Salmonella enterica subsp. enterica serovar Choleraesuis CVCC 503
[14] = test system: Salmonella enterica subsp. enterica serovar Typhimurium ATCC 14028
[15] = test system: Candida parapsilosis CGMCC 2.3989
[16] = test system: Staphylococcus aureus ATCC 43300
[17] = test system: Candida tropicalis CGMCC 2.1975
[18] = test system: Candida albicans CGMCC 2.2086
[19] = test system: Cryptococcus neoformans ATCC 32045
[20] = test system: Candida albicans ATCC 10231
[21] = test system: Pseudomonas aeruginosa ATCC 10145
[22] = test system: Staphylococcus aureus ATCC 33591
[23] = test system: Escherichia coli ATCC 2592

Question: With `CC[C@H](C)[C@H](NC(=O)[C@H](CCCN=C(N)N)NC(=O)[C@H](CCCN=C(N)N)NC(=O)[C@@H]1CCCN1C(=O)[C@H](CCCN=C(N)N)NC(=O)[C@H](CCCN=C(N)N)NC(=O)[C@@H]1CCCN1C(=O)[C@H](CCCN=C(N)N)NC(=O)[C@@H]1CCCN1C(=O)[C@H](CC(C)C)NC(=O)[C@H](Cc1ccc(O)cc1)NC(=O)[C@@H]1CCCN1C(=O)[C@@H]1CCCN1C(=O)[C@H](CCCCN)NC(=O)[C@H](CC(=O)O)NC(=O)[C@@H](N)C(C)C)C(=O)N[C@@H](Cc1ccc(O)cc1)C(=O)N[C@@H](CC(N)=O)C(=O)N[C@@H](CCCN=C(N)N)C(=O)NCC(=O)O` [VDKPPYLPRPRRPRRIYNRG] as the molecule, how does the MIC [1] read?
Answer: 0.0878 µM (≈ 0.22 µg/mL)

Question: Which MIC [2] does the source give for `CC(C)C[C@H](NC(=O)[C@H](CCCN=C(N)N)NC(=O)[C@@H]1CCCN1C(=O)[C@H](CCCN=C(N)N)NC(=O)[C@@H]1CCCN1C(=O)[C@@H]1CCCN1C(=O)[C@H](CCCN=C(N)N)NC(=O)[C@@H]1CCCN1C(=O)[C@H](CCC(N)=O)NC(=O)[C@@H]1CCCN1C(=O)[C@H](CCCCN)NC(=O)[C@H](Cc1ccc(O)cc1)NC(=O)[C@@H](NC(=O)[C@@H]1CCCN1C(=O)[C@H](CCCN=C(N)N)NC(=O)[C@H](CC(N)=O)NC(=O)[C@H](CC(N)=O)NC(=O)CN)C(C)C)C(=O)O` [GNNRPVYKPQPRPPRPRL] here?
Answer: 0.133 µM (≈ 0.285 µg/mL)

Question: What about the MIC [3] of the same molecule?
Answer: 0.192 µM (≈ 0.411 µg/mL)

Question: What about the MIC (Escherichia coli BW25113) of the same molecule?
Answer: 0.067 µM (≈ 0.144 µg/mL)

Question: What about the MIC (Escherichia coli JJ2489) of the same molecule?
Answer: 0.133 µM (≈ 0.285 µg/mL)

Question: What about the MIC (Escherichia coli JW0013) of the same molecule?
Answer: 0.062 µM (≈ 0.133 µg/mL)

Question: And the MIC [4]?
Answer: 0.096 µM (≈ 0.206 µg/mL)

Question: What about the MIC [5] of the same molecule?
Answer: 0.096 µM (≈ 0.206 µg/mL)

Question: And the MIC (Escherichia coli MC1041)?
Answer: 0.133 µM (≈ 0.285 µg/mL)

Question: What about the MIC (Escherichia coli J2210) of the same molecule?
Answer: 0.252 µM (≈ 0.54 µg/mL)

Question: `CC[C@H](C)[C@H](NC(=O)[C@H](CCCN=C(N)N)NC(=O)[C@H](CCCN=C(N)N)NC(=O)[C@@H]1CCCN1C(=O)[C@@H]1CCCN1C(=O)[C@H](CCCN=C(N)N)NC(=O)[C@@H]1CCCN1C(=O)[C@H](CCCN=C(N)N)NC(=O)[C@@H]1CCCN1C(=O)[C@H](CC(C)C)NC(=O)[C@H](Cc1ccc(O)cc1)NC(=O)[C@@H]1CCCN1C(=O)[C@@H]1CCCN1C(=O)[C@H](CCCCN)NC(=O)[C@H](CC(=O)O)NC(=O)[C@@H](N)C(C)C)C(=O)N[C@@H](Cc1ccc(O)cc1)C(=O)N[C@@H](CS)C(=O)N[C@@H](CCCN=C(N)N)C(=O)NCC(=O)O` [VDKPPYLPRPRPPRRIYCRG] was tested. Which MIC [1] did it give?
Answer: 0.0575 µM (≈ 0.14 µg/mL)

Question: Which results are given for `CC(C)C[C@H](NC(=O)[C@H](CCCN=C(N)N)NC(=O)[C@@H]1CCCN1C(=O)[C@H](CCCN=C(N)N)NC(=O)[C@@H]1CCCN1C(=O)[C@@H]1CCCN1C(=O)[C@H](CCCN=C(N)N)NC(=O)[C@@H]1CCCN1C(=O)[C@H](CCC(N)=O)NC(=O)[C@@H]1CCCN1C(=O)[C@H](CCCCN)NC(=O)[C@H](Cc1ccc(O)cc1)NC(=O)[C@@H](NC(=O)[C@@H]1CCCN1C(=O)[C@H](CCCCN)NC(=O)[C@H](CC(N)=O)NC(=O)[C@H](CC(N)=O)NC(=O)CN)C(C)C)C(=O)O` [GNNKPVYKPQPRPPRPRL]?
Answer: MIC [2]: 0.192 µM (≈ 0.406 µg/mL); MIC [3]: 0.192 µM (≈ 0.406 µg/mL); MIC (Escherichia coli BW25113): 0.096 µM (≈ 0.203 µg/mL); MIC (Escherichia coli JJ2489): 0.252 µM (≈ 0.533 µg/mL); MIC (Escherichia coli JW0013): 0.096 µM (≈ 0.203 µg/mL); MIC [4]: 0.133 µM (≈ 0.281 µg/mL); MIC [5]: 0.192 µM (≈ 0.406 µg/mL); MIC (Escherichia coli MC1041): 0.192 µM (≈ 0.406 µg/mL); MIC (Escherichia coli J2210): 0.267 µM (≈ 0.565 µg/mL)

Question: How did the MIC [6] turn out when `CC(C)C[C@H](NC(=O)[C@H](CCCCN)NC(=O)[C@H](CCCCN)NC(=O)[C@H](CC(C)C)NC(=O)[C@H](CCCN=C(N)N)NC(=O)[C@H](CS)NC(=O)[C@H](C)NC(=O)[C@H](CC(C)C)NC(=O)[C@H](CCCCN)NC(=O)[C@H](CCCCN)NC(=O)[C@@H](N)CC(C)C)C(=O)N[C@@H](C)C(=O)N[C@@H](CS)C(=O)N[C@@H](CCCN=C(N)N)C(N)=O` [LKKLACRLKKLACR] was run?
Answer: 16 µM (≈ 26.3 µg/mL)

Question: And the MIC (Candida albicans)?
Answer: 45.3 µM (≈ 74.4 µg/mL)

Question: What about the MIC [7] of the same molecule?
Answer: > 64 µM

Question: What about the MIC (Escherichia coli UB1005) of the same molecule?
Answer: ≥ 32 µM

Question: And the MIC [8]?
Answer: > 64 µM

Question: What about the MIC [9] of the same molecule?
Answer: 32 µM (≈ 52.6 µg/mL)

Question: What about the MIC [10] of the same molecule?
Answer: 64 µM (≈ 105 µg/mL)

Question: And the MIC [11]?
Answer: > 64 µM

Question: And the MIC [12]?
Answer: ≥ 32 µM

Question: And the MIC [13]?
Answer: ≥ 32 µM

Question: What about the MIC [14] of the same molecule?
Answer: 64 µM (≈ 105 µg/mL)

Question: And the MIC [15]?
Answer: ≥ 64 µM

Question: And the MIC [16]?
Answer: 64 µM (≈ 105 µg/mL)

Question: And the MIC [17]?
Answer: 8 µM (≈ 13.1 µg/mL)

Question: And the MIC [18]?
Answer: ≥ 64 µM

Question: For `C[C@H](NC(=O)[C@H](Cc1ccccc1)NC(=O)[C@H](CCCN=C(N)N)NC(=O)[C@H](CCCN=C(N)N)NC(=O)[C@H](C)NC(=O)[C@H](Cc1ccccc1)NC(=O)[C@H](CCCN=C(N)N)NC(=O)[C@H](CCCN=C(N)N)NC(=O)[C@H](C)NC(=O)[C@H](Cc1ccccc1)NC(=O)[C@H](CCCN=C(N)N)NC(=O)[C@H](CCCN=C(N)N)NC(=O)[C@H](C)NC(=O)[C@H](Cc1ccccc1)NC(=O)[C@H](CCCN=C(N)N)NC(=O)[C@H](CCCN=C(N)N)NC(=O)[C@H](C)NC(=O)[C@H](Cc1ccccc1)NC(=O)[C@H](CCCN=C(N)N)NC(=O)[C@H](CCCN=C(N)N)NC(=O)[C@H](C)NC(=O)[C@H](Cc1ccccc1)NC(=O)[C@H](CCCN=C(N)N)NC(=O)[C@H](CCCN=C(N)N)NC(=O)[C@H](C)NC(=O)[C@H](Cc1ccccc1)NC(=O)[C@@H](N)CCCN=C(N)N)C(=O)N[C@@H](CCCN=C(N)N)C(=O)O` [RFARRFARRFARRFARRFARRFARRFAR], which MIC [19] is on record?
Answer: 23.6 µM (≈ 88 µg/mL)

Question: And the MIC [20]?
Answer: 94.7 µM (≈ 354 µg/mL)

Question: What about the MIC [21] of the same molecule?
Answer: 16.6 µM (≈ 62 µg/mL)

Question: What about the MIC [22] of the same molecule?
Answer: ≥ 47.4 µM

Question: What about the MIC [23] of the same molecule?
Answer: 11.9 µM (≈ 44.5 µg/mL)

Question: For `CC[C@H](C)[C@H](NC(=O)[C@H](CCCN=C(N)N)NC(=O)[C@H](CCCN=C(N)N)NC(=O)[C@@H]1CCCN1C(=O)[C@@H]1CCCN1C(=O)[C@H](CCCN=C(N)N)NC(=O)[C@@H]1CCCN1C(=O)[C@H](CCCN=C(N)N)NC(=O)[C@@H]1CCCN1C(=O)[C@H](CC(C)C)NC(=O)[C@H](Cc1ccc(O)cc1)NC(=O)[C@@H]1CCCN1C(=O)[C@@H]1CCCN1C(=O)[C@H](CCCCN)NC(=O)[C@H](CC(=O)O)NC(=O)[C@@H](N)C(C)C)C(=O)N[C@@H](Cc1ccc(O)cc1)C(=O)N[C@@H](CC(N)=O)C(=O)N[C@@H](CCCCN)C(=O)NCC(=O)O` [VDKPPYLPRPRPPRRIYNKG], which MIC [1] is on record?
Answer: 0.107 µM (≈ 0.26 µg/mL)

Question: Which results are given for `C[C@H](NC(=O)[C@H](CCCCN)NC(=O)[C@H](Cc1ccccc1)NC(=O)[C@H](C)NC(=O)[C@H](CCCCN)NC(=O)[C@H](Cc1ccccc1)NC(=O)[C@H](C)NC(=O)[C@H](CCCCN)NC(=O)[C@H](Cc1ccccc1)NC(=O)[C@H](C)NC(=O)[C@H](CCCCN)NC(=O)[C@H](Cc1ccccc1)NC(=O)[C@H](C)NC(=O)[C@H](CCCCN)NC(=O)[C@H](Cc1ccccc1)NC(=O)[C@H](C)NC(=O)[C@H](CCCCN)NC(=O)[C@@H](N)Cc1ccccc1)C(=O)O` [FKAFKAFKAFKAFKAFKA]?
Answer: MIC [19]: 2.7 µM (≈ 5.66 µg/mL); MIC [20]: 169 µM (≈ 354 µg/mL); MIC [21]: ≥ 47.7 µM; MIC [22]: ≥ 238 µM; MIC [23]: 21.2 µM (≈ 44.5 µg/mL)

Question: With `C[C@H](NC(=O)[C@H](CCCCN)NC(=O)[C@H](Cc1ccccc1)NC(=O)[C@H](C)NC(=O)[C@H](CCCCN)NC(=O)[C@H](Cc1ccccc1)NC(=O)[C@H](C)NC(=O)[C@H](CCCCN)NC(=O)[C@H](Cc1ccccc1)NC(=O)[C@H](C)NC(=O)[C@H](CCCCN)NC(=O)[C@H](Cc1ccccc1)NC(=O)[C@H](C)NC(=O)[C@H](CCCCN)NC(=O)[C@H](Cc1ccccc1)NC(=O)[C@H](C)NC(=O)[C@H](CCCCN)NC(=O)[C@H](Cc1ccccc1)NC(=O)[C@H](C)NC(=O)[C@H](CCCCN)NC(=O)[C@H](Cc1ccccc1)NC(=O)[C@H](C)NC(=O)[C@H](CCCCN)NC(=O)[C@H](Cc1ccccc1)NC(=O)[C@H](C)NC(=O)[C@H](CCCCN)NC(=O)[C@@H](N)Cc1ccccc1)C(=O)O` [FKAFKAFKAFKAFKAFKAFKAFKAFKA] as the molecule, how does the MIC [19] read?
Answer: 28.1 µM (≈ 88 µg/mL)

Question: What about the MIC [20] of the same molecule?
Answer: 113 µM (≈ 354 µg/mL)

Question: What about the MIC [21] of the same molecule?
Answer: 6.38 µM (≈ 20 µg/mL)

Question: What about the MIC [22] of the same molecule?
Answer: 14 µM (≈ 43.8 µg/mL)

Question: And the MIC [23]?
Answer: 14 µM (≈ 43.8 µg/mL)
